Assay [1] has as its system stress-related reduction in food intake. The note with it: Brain Research, 823: 221-225 (1999); cited from earlier work.
The next assay concerns the target T1, human CRFR1 (Homo sapiens, UniProt P34998).
T1 construct: The full-length CRFR1 gene was obtained by PCR by using human brain cDNA library; expressed in transfected cells
T1 sequence (P34998 24-415): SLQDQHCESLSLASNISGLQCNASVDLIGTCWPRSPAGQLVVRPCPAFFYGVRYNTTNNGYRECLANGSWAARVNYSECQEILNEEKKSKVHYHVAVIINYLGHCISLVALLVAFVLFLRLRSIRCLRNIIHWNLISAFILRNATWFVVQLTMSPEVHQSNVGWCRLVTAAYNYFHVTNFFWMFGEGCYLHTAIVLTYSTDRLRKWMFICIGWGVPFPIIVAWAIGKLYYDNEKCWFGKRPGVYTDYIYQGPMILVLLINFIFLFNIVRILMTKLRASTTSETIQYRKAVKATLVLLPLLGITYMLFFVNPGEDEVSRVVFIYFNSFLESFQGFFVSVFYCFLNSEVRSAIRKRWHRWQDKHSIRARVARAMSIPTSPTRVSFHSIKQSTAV
As to the kind of experiment: CRFR1 binding test (SPA competition with 125I-CRF). The note with it: membrane fraction of human CRFR1-expressing HEK293 cells, read-out: CRF1 receptor binding capacity IC50. How it is done: (1) Preparation of CRFR1-Expressing Cells
The membrane fraction of human CRFR1 high-expressing cells was used as the material for a CRFR1 binding experiment. The CRFR1-expressing cells were prepared in the following manner. The full-length CRFR1 gene was obtained by PCR by using human brain cDNA library (QuickClone™, Clontech). The obtained DNA fragment was inserted into a cloning vector and the base sequence was confirmed cDNA having the proper base sequence was linked to an expression vector (pcDNA3.1™, Invitrogen). The CRFR1 expression vector was genetically introduced into HEK293 cell, and the resistant cells which proliferated in culture medium containing G418 (1 mg/ml) were cloned by the limiting dilution method. Out of the cloned cells, cells having high binding capacity between the membrane fraction per unit protein and sauvagine were selected according to the following binding experiment, and the selected cells were used for the experiments.
(2) Preparation of Membrane Fraction
The cloned cells obtained in (1) were collected and suspended in ice-cooled membrane buffer (50 mM Tris-HCl, 5 mM MgCl2, 2 mM EGTA, 1 mM DTT, protease inhibitor cocktail (COMPLETE™, Roche Diagnostics) pH 7.3), and then the cells were disrupted with a Polytron (KINEMATICA) while cooling on ice (level 5, 10 seconds, 2-5 times, ice-cooling) and then centrifuged (2,000 rpm, 5 minutes, 4° C.), followed by collecting the supernatant. Membrane buffer was added to the precipitate, and the mixture was subjected to Polytron treatment (same conditions as mentioned above) and centrifuged (conditions as mentioned above), and the obtained supernatant was collected and combined with the previous supernatant. This was centrifuged (13,000 rpm (18,000×g), 30 minutes, 4° C.) to prepare cell membranes. The precipitated cell membranes were suspended in membrane buffer and disrupted with a Polytron (level 5, 10 seconds, 3-5 times, ice-cooling) to prepare a dispersed suspension. The protein assay was carried out.
The following method (1) or (2) was earned out for use as the cell membrane action.
(1) The above dispersed suspension was diluted with membrane buffer containing 0.1% BSA to a protein concentration of 200 μg/ml, for use as the cell membrane fraction.
(2) The above dispersed suspension was freeze-preserved, and if necessary, thawed, re-dispersed and diluted for use as the cell membrane fraction.
A binding competition experiment with CRF was conducted by the SPA (GE Healthcare) method using a 96-well plate. Five jug of the cell membrane fraction protein, 1 mg of SPA beads and […] ^125I-CRF (Perkin Elmer) were allowed to stand at mom temperature for at least two hours in the presence of a test compound, and the radioactivity of each well after centrifugation (1,200 rpm (260×g), five minutes, room temperature) was measured with a TopCount (registered trademark; Perkin Elmer).
(4) Calculation of Binding Capacity
The radioactivity with addition of a 4,000-fold excess of non-radioactive sauvagine as the nonspecific binding was subtracted from each value, and the resulting value was expressed as a percentage (% of control), with 100% as the radioactivity without addition of the test compound (control).

In the next assay the test system is male Balb/c mice. The assay can be described thus: Light/dark box test in mice (anxiolytic effect). The assay is classed as in vivo. The note with it: for anxiolytic effect in the light/dark box test in mice: dose 30 mg/kg, oral administration; for Effective Dose: minimum dose significantly prolonging time spent in light box vs vehicle, oral, one hour prior to test, Balb/c mice. How it is done: Evaluation of Anxiolytic Effect in Light/Dark Box Test in Mice
The light/dark box test in mice was carried out according to a modified method of Belzung C., Misslin R., and Vogel E. et al. (Reference; Behavioural effects of the benzodiazepine receptor partial agonist RO16-6028 in mice, Psychopharmacology, 97, 388-391, 1989). The test apparatus used in this test was a light/dark box including a covered black acrylic box (dark box; 15×10×20 cm), a white acrylic box with top opened (light box; 15×20×20 cm) and a black acrylic tunnel (10×7×4.5 cm) that connects the dark box and the light box and enables a mouse to freely move back and forth between the dark box and light box. In this test apparatus, however, a transparent acrylic plate was used for the front side (20×20 cm) and back side (20×20 cm) of the light box to allow observation of the behavior. After setting illumination so that the light intensity of the floor surface of the light box became 150 Lux, 5-week-old male Balb/c mice (purchased from Nihon Charles River) were introduced into the dark box and the test was started. In the test; the tested compound was suspended in 5% dimethyl sulfoxide, 5% Cremopor EL and 90% physiological saline and orally administered to the test animals one hour prior to the start of the test.
(2) Calculation of Anxiolytic Effect:
The time spent in the light box was measured as an index of the anxiolytic effect, with “spend in the light box” defined as the state in which all limbs of the mice were on the floor of the light box. […] The statistical significance between the vehicle-treated group and the test compound-treated groups was analyzed by one-way layout analysis of variance followed by Dunnett multiple comparison when multiple doses were set for the same test, and by the Mann-Whitney U test when only one dose was set.

The next assay relates to ethanol withdrawal rats. The note with it: Brain Research, 605:25-32 (1993); cited from earlier work.
The next assay deals with intracerebral amyloid-β. The note with it: PNAS 104: 10673-10678 (2007); cited from earlier work.
The next assay relates to IBS patients. The note with it: Gut 2004, 53:958-964; cited from earlier work.
Assay [2] has as its system ischemic and excitotoxic encephalopathy. Particulars: Brain Research, 656: 405-408 (1994); cited from earlier work.

Here are results for 15 compounds from patent US20110086898A1, “PYRAZOLOOXAZOLE COMPOUND” (Eisai R&D Management Co., Ltd., priority 2009, published 2011).

The term IC50 denotes the concentration needed to halve the response being measured.

For `CCN(c1nc(C)cc(N2CC=C(c3cccc(F)c3)CC2)n1)c1ccc(C(C)C)cc1SC` [CRA1000], the “stress-related reduction in food intake” value in assay [1] is “inhibit”.
For the compound `CCc1nn2c(-c3c(OC)cc(COC)cc3OC)coc2c1N(CC1CCOCC1)CC1CC1` [Example 3, N-(cyclopropylmethyl)-3-[2,6-dimethoxy-4-(methoxymethyl)phenyl]-6-ethyl-N-(tetrahydro-2H-pyran-4-ylmethyl)pyrazolo[5,1-b][1,3]oxazole-7-amine], the half-maximal inhibitory concentration (IC50) on human CRFR1 came out at 100 nM.
For the compound `CCc1nn2c(-c3c(OC)cc(COC)cc3OC)c(C)oc2c1N(CC1CCOCC1)CC1CC1` [Example 5, N-(cyclopropylmethyl)-3-[2,6-dimethoxy-4-(methoxymethyl)phenyl]-6-ethyl-2-methyl-N-(tetrahydro-2H-pyran-4-ylmethyl)pyrazolo[5,1-b][1,3]oxazole-7-amine], in the assay with male Balb/c mice, the “anxiolytic effect in the light/dark box test in mice” value was “statistically significant effects” and the “Effective Dose” value is given as 30 mg/kg. In addition, on human CRFR1, the IC50 came out at 32 nM.
Consider `CCc1nn2c(-c3c(OC)cc(COC)cc3OC)c(C)oc2c1N(CC(C)C)CC1CCOCC1` [Example 6, 3-[2,6-dimethoxy-4-(methoxymethyl)phenyl]-6-ethyl-N-isobutyl-2-methyl-N-(tetrahydro-2H-pyran-4-ylmethyl)pyrazolo[5,1-b][1,3]oxazole-7-amine], for which, on human CRFR1, the IC50 worked out at 43 nM.
For `CCc1nn2c(-c3c(OC)cc(COC)cc3OC)c(C)oc2c1N(CC1CC1)CC1CC1` [Example 7, N,N-bis(cyclopropylmethyl)-3-[2,6-dimethoxy-4-(methoxymethyl)phenyl]-6-ethyl-2-methylpyrazolo[5,1-b][1,3]oxazole-7-amine], the concentration for half-maximal inhibition (IC50) on human CRFR1 is 21 nM.
Still for that read-out and setting: with `CCc1nn2c(-c3c(OC)cc(COC)cc3OC)c(C)oc2c1N(CC1CC1)CC1CCOC1` (stereo not drawn) [Example 8, N-(cyclopropylmethyl)-3-[2,6-dimethoxy-4-(methoxymethyl)phenyl]-6-ethyl-2-methyl-N-(tetrahydrofuran-3-ylmethyl)pyrazolo[5,1-b][1,3]oxazole-7-amine] the figure was 77 nM; with `CCOCc1cc(OC)c(-c2c(C)oc3c(N(CC4CC4)CC4CCOC4)c(CC)nn23)c(OC)c1` (stereo not drawn) [Example 9, N-(cyclopropylmethyl)-3-[4-(ethoxymethyl)-2,6-dimethoxyphenyl]-6-ethyl-2-methyl-N-(tetrahydrofuran-3-ylmethyl)pyrazolo[5,1-b][1,3]oxazole-7-amine], 44 nM.
In the case of `COCc1cc(OC)c(-c2c(C)oc3c(N(CC4CCOCC4)CC4CC4)c(C)nn23)c(OC)c1` [Example 10, N-(cyclopropylmethyl)-3-[2,6-dimethoxy-4-(methoxymethyl)phenyl]-2,6-dimethyl-N-(tetrahydro-2H-pyran-4-ylmethyl)pyrazolo[5,1-b][1,3]oxazole-7-amine], in the assay with male Balb/c mice, the “anxiolytic effect in the light/dark box test in mice” value is given as “statistically significant effects” and the “Effective Dose” value stood at 30 mg/kg. The half-inhibitory concentration (IC50) on human CRFR1 turned out to be 71 nM.
With `COCc1cc(OC)c(-c2c(C)oc3c(N(CC(C)C)CC4CCOCC4)c(C)nn23)c(OC)c1` [Example 11, 3-[2,6-dimethoxy-4-(methoxymethyl)phenyl]-N-isobutyl-2,6-dimethyl-N-(tetrahydro-2H-pyran-4-ylmethyl)pyrazolo[5,1-b][1,3]oxazole-7-amine], the IC50 at human CRFR1 is 50 nM.
On to `COCc1cc(OC)c(-c2c(C)oc3c(N(CC(C)C)CC4CCOC4)c(C)nn23)c(OC)c1` (stereo not drawn) [Example 12, 3-[2,6-dimethoxy-4-(methoxymethyl)phenyl]-N-isobutyl-2,6-dimethyl-N-(tetrahydrofuran-3-ylmethyl)pyrazolo[5,1-b][1,3]oxazole-7-amine], for which, at human CRFR1, the IC50 is 79 nM.
`CCOCc1cc(OC)c(-c2c(C)oc3c(N(CC4CCOCC4)CC4CC4)c(C)nn23)c(OC)c1` [Example 13, N-(cyclopropylmethyl)-3-[4-(ethoxymethyl)-2,6-dimethoxyphenyl]-2,6-dimethyl-N-(tetrahydro-2H-pyran-4-ylmethyl)pyrazolo[5,1-b][1,3]oxazole-7-amine]: the IC50 at human CRFR1 amounted to 61 nM.
The same measure, in the same setting: with `CCc1nn2c(-c3c(OC)cc(COC)cc3OC)c(C)oc2c1N(CC1CC1)CC1COCOC1` [Example 14, N-(cyclopropylmethyl)-3-[2,6-dimethoxy-4-(methoxymethyl)phenyl]-N-(1,3-dioxan-5-ylmethyl)-6-ethyl-2-methylpyrazolo[5,1-b][1,3]oxazole-7-amine] the figure was 121 nM.
For `CCCCN(c1c(CC)nn2c(-c3c(OC)cc(COC)cc3OC)c(C)oc12)C1CCOCC1` [Example 15, N-butyl-3-[2,6-dimethoxy-4-(methoxymethyl)phenyl]-6-ethyl-2-methyl-N-(tetrahydro-2H-pyran-4-yl)pyrazolo[5,1-b][1,3]oxazole-7-amine], the IC50 on human CRFR1 was found to be 98 nM.
As for `CCc1nn2c(-c3c(OC)cc(COC)cc3OC)c(C)oc2c1N(CC1CC1)C1CCOCC1` [Example 16, N-(cyclopropylmethyl)-3-[2,6-dimethoxy-4-(methoxymethyl)phenyl]-6-ethyl-2-methyl-N-(tetrahydro-2H-pyran-4-yl)pyrazolo[5,1-b][1,3]oxazole-7-amine], at human CRFR1, the IC50 was 102 nM.
Turning to α-helical CRF (9-41), the “anxiety behavior in ethanol withdrawal rats” value in the assay on ethanol withdrawal rats is on record as “inhibits”. In assay [1], the “stress-related reduction in food intake” value was “inhibit”. Further, the “stress-related increase in intracerebral amyloid-β” value in the assay on intracerebral amyloid-β is reported as “suppresses”. For the same compound, in the assay with IBS patients, the “abdominal pain and anxiety” value was “reduces”; the colon intestinal hyperkinesis entry was “inhibits”. The “ischemic and excitotoxic encephalopathy” value in assay [2] is listed as “inhibits”.
